# Results: PubChem BioAssay AID248 (DTP/NCI, 2004)
# Several values for one entry are separate records, joined by “and”; a condition that tells them apart may be missing. Identical values can stand only once. Inconclusive results and toxic doses are left out.
# Tested on: L1210 leukemia ip in BDF1 mice, survival T/C
# Experiment: NCI In Vivo Anticancer Drug Screen. Data for tumor model L1210 Leukemia (intraperitoneal) in B6D2F1 (BDF1) mice
# Details: endpoint: mean survival time, higher = longer survival
# Method in brief: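 Antitumor effect is assessed in tumor-bearing animals. Survival in the compound arm is compared with a vehicle-dosed control arm and expressed as their quotient.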
# [1] = dose: 100.0 mg/kg/injection, schedule: Q04DX003 (ip), vehicle: Klucel (hydroxypropylcellulose) (HPC)
# [2] = dose: 200.0 mg/kg/injection, schedule: Q04DX003 (ip), vehicle: Klucel (hydroxypropylcellulose) (HPC)
# [3] = dose: 100.0 mg/kg/injection, schedule: Q01DX009 (ip), vehicle: Klucel (hydroxypropylcellulose) (HPC)
# [4] = dose: 100.0 mg/kg/injection, schedule: Q01DX009 (ip), vehicle: saline
structure (smiles),measurement,setting,value
O=P1(N(CCCl)CCCl)NC(OO)CCO1 (stereo not drawn),T/C,"dose: 200.0 mg/kg/injection, schedule: Q01DX001 (ip), vehicle: DMSO",270 % of control
OCCCCCCCCCCCC[n+]1ccccc1,T/C,"dose: 87.5 mg/kg/injection, schedule: Q01DX001 (ip), vehicle: saline",105 % of control
CCOC(=O)N1CCC(=C(C#N)c2ccccc2)CC1,T/C,[1],92 % of control
same,T/C,[2],92 % of control
CC(CN(C)C)C(=O)c1ccccc1 (stereo not drawn),T/C,"dose: 25.0 mg/kg/injection, schedule: Q01DX009 (ip), vehicle: Klucel (hydroxypropylcellulose) (HPC)",106 % of control
same,T/C,"dose: 25.0 mg/kg/injection, schedule: Q01DX009 (ip), vehicle: saline",105 % of control and 104 % of control
same,T/C,"dose: 25.0 mg/kg/injection, schedule: Q04DX002 (ip), vehicle: saline",104 % of control
same,T/C,"dose: 25.0 mg/kg/injection, schedule: Q04DX003 (ip), vehicle: Klucel (hydroxypropylcellulose) (HPC)",91 % of control
same,T/C,"dose: 25.0 mg/kg/injection, schedule: Q04DX003 (ip), vehicle: saline",98 % of control
same,T/C,"dose: 50.0 mg/kg/injection, schedule: Q01DX009 (ip), vehicle: Klucel (hydroxypropylcellulose) (HPC)",101 % of control
same,T/C,"dose: 50.0 mg/kg/injection, schedule: Q01DX009 (ip), vehicle: saline",110 % of control and 100 % of control
same,T/C,"dose: 50.0 mg/kg/injection, schedule: Q04DX002 (ip), vehicle: saline",96 % of control
same,T/C,"dose: 50.0 mg/kg/injection, schedule: Q04DX003 (ip), vehicle: Klucel (hydroxypropylcellulose) (HPC)",100 % of control
same,T/C,"dose: 50.0 mg/kg/injection, schedule: Q04DX003 (ip), vehicle: saline",88 % of control
same,T/C,[3],108 % of control
same,T/C,[4],102 % of control and 96 % of control
same,T/C,"dose: 100.0 mg/kg/injection, schedule: Q04DX002 (ip), vehicle: saline",96 % of control
same,T/C,[1],101 % of control and 102 % of control
same,T/C,"dose: 100.0 mg/kg/injection, schedule: Q04DX003 (ip), vehicle: saline",96 % of control and 103 % of control
O=C(CCN1CC1)NCCCCCCCCNC(=O)CCN1CC1,T/C,"dose: 1.0 mg/kg/injection, schedule: Q01DX009 (ip), vehicle: saline",91 % of control
same,T/C,"dose: 2.0 mg/kg/injection, schedule: Q01DX009 (ip), vehicle: saline",105 % of control
same,T/C,"dose: 4.0 mg/kg/injection, schedule: Q01DX009 (ip), vehicle: carboxymethylcellulose (CMC)",111 % of control
same,T/C,"dose: 8.0 mg/kg/injection, schedule: Q01DX009 (ip), vehicle: carboxymethylcellulose (CMC)",96 % of control
same,T/C,"dose: 22.0 mg/kg/injection, schedule: Q01DX001 (ip), vehicle: carboxymethylcellulose (CMC)",111 % of control
same,T/C,"dose: 26.0 mg/kg/injection, schedule: Q01DX009 (ip), vehicle: carboxymethylcellulose (CMC)",151 % of control
same,T/C,"dose: 33.0 mg/kg/injection, schedule: Q01DX001 (ip), vehicle: carboxymethylcellulose (CMC)",122 % of control
same,T/C,"dose: 33.0 mg/kg/injection, schedule: Q01DX009 (ip), vehicle: carboxymethylcellulose (CMC)",151 % of control
same,T/C,"dose: 50.0 mg/kg/injection, schedule: Q01DX009 (ip), vehicle: carboxymethylcellulose (CMC)",160 % of control
same,T/C,"dose: 75.0 mg/kg/injection, schedule: Q01DX001 (ip), vehicle: carboxymethylcellulose (CMC)",150 % of control
CCC(O)(/C(=N/Nc1ccc([N+](=O)[O-])cc1[N+](=O)[O-])c1ccccc1)c1ccccc1 (stereo not drawn),T/C,"dose: 100.0 mg/kg/injection, schedule: Q01DX001 (ip), vehicle: saline with Tween-80",94 % of control
same,T/C,"dose: 200.0 mg/kg/injection, schedule: Q01DX001 (ip), vehicle: saline with Tween-80",89 % of control
same,T/C,"dose: 400.0 mg/kg/injection, schedule: Q01DX001 (ip), vehicle: saline with Tween-80",89 % of control
CC(=O)c1c[nH]c2ccccc12,T/C,[4],101 % of control
same,T/C,"dose: 200.0 mg/kg/injection, schedule: Q01DX009 (ip), vehicle: saline",108 % of control
same,T/C,"dose: 400.0 mg/kg/injection, schedule: Q01DX009 (ip), vehicle: saline",95 % of control
CCCCCCCN(CCCCCCC)C(C)C(=O)c1ccc2cc(Br)c3ccccc3c2c1 (stereo not drawn),T/C,"dose: 100.0 mg/kg/injection, schedule: Q01DX001 (ip), vehicle: alcohol",106 % of control
same,T/C,"dose: 200.0 mg/kg/injection, schedule: Q01DX001 (ip), vehicle: alcohol",97 % of control
same,T/C,"dose: 400.0 mg/kg/injection, schedule: Q01DX001 (ip), vehicle: alcohol",100 % of control
O=C(NCc1ccco1)Nc1ccc([N+](=O)[O-])cc1,T/C,"dose: 222.0 mg/kg/injection, schedule: Q01DX Z (ip), vehicle: methylcellulose (MC)",101 % of control
same,T/C,"dose: 333.0 mg/kg/injection, schedule: Q01DX Z (ip), vehicle: methylcellulose (MC)",94 % of control
same,T/C,"dose: 500.0 mg/kg/injection, schedule: Q01DX Z (ip), vehicle: methylcellulose (MC)",96 % of control
CCCCCCCCCCCCOB(OCCCCCCCCCCCC)OCCCCCCCCCCCC,T/C,"dose: 50.0 mg/kg/injection, schedule: Q01DX001 (ip), vehicle: carboxymethylcellulose (CMC)",96 % of control
same,T/C,"dose: 100.0 mg/kg/injection, schedule: Q01DX001 (ip), vehicle: carboxymethylcellulose (CMC)",102 % of control
same,T/C,"dose: 100.0 mg/kg/injection, schedule: Q01DX009 (ip), vehicle: saline with Tween-80",98 % of control
same,T/C,"dose: 200.0 mg/kg/injection, schedule: Q01DX001 (ip), vehicle: carboxymethylcellulose (CMC)",94 % of control
same,T/C,"dose: 400.0 mg/kg/injection, schedule: Q01DX001 (ip), vehicle: carboxymethylcellulose (CMC)",94 % of control
CCC[CH2][Sn]1([CH2]CCC)[O]OC(c2ccc(OC)cc2)[O]1 (stereo not drawn),T/C,"dose: 6.25 mg/kg/injection, schedule: Q01DX005 (sc), vehicle: olive oil, sesame oil, peanut oil",95 % of control
same,T/C,"dose: 6.25 mg/kg/injection, schedule: Q01DX009 (sc), vehicle: olive oil, sesame oil, peanut oil",104 % of control and 88 % of control
same,T/C,"dose: 12.5 mg/kg/injection, schedule: Q01DX005 (sc), vehicle: olive oil, sesame oil, peanut oil",106 % of control
same,T/C,"dose: 12.5 mg/kg/injection, schedule: Q01DX009 (sc), vehicle: olive oil, sesame oil, peanut oil",104 % of control and 91 % of control
same,T/C,"dose: 25.0 mg/kg/injection, schedule: Q01DX005 (sc), vehicle: olive oil, sesame oil, peanut oil",95 % of control
same,T/C,"dose: 25.0 mg/kg/injection, schedule: Q04DX002 (sc), vehicle: olive oil, sesame oil, peanut oil",97 % of control
same,T/C,"dose: 50.0 mg/kg/injection, schedule: Q04DX002 (sc), vehicle: olive oil, sesame oil, peanut oil",106 % of control
same,T/C,"dose: 100.0 mg/kg/injection, schedule: Q04DX002 (sc), vehicle: olive oil, sesame oil, peanut oil",100 % of control
c1coc(CNc2ncnc3nc[nH]c23)c1,T/C,"dose: 75.0 mg/kg/injection, schedule: Q01DX001 (ip), vehicle: other",92 % of control
same,T/C,"dose: 75.0 mg/kg/injection, schedule: Q01DX009 (ip), vehicle: Klucel (hydroxypropylcellulose) (HPC)",103 % of control
same,T/C,"dose: 150.0 mg/kg/injection, schedule: Q01DX001 (ip), vehicle: other",98 % of control
same,T/C,"dose: 150.0 mg/kg/injection, schedule: Q01DX009 (ip), vehicle: Klucel (hydroxypropylcellulose) (HPC)",97 % of control
same,T/C,"dose: 300.0 mg/kg/injection, schedule: Q01DX001 (ip), vehicle: other",97 % of control
same,T/C,"dose: 300.0 mg/kg/injection, schedule: Q01DX009 (ip), vehicle: Klucel (hydroxypropylcellulose) (HPC)",106 % of control
CCOC(=O)C(C(=O)CC)=P(c1ccccc1)(c1ccccc1)c1ccccc1,T/C,"dose: 100.0 mg/kg/injection, schedule: Q01DX005 (ip), vehicle: Klucel (hydroxypropylcellulose) (HPC)",113 % of control
same,T/C,[3],97 % of control
same,T/C,"dose: 200.0 mg/kg/injection, schedule: Q01DX005 (ip), vehicle: Klucel (hydroxypropylcellulose) (HPC)",88 % of control
same,T/C,"dose: 200.0 mg/kg/injection, schedule: Q01DX009 (ip), vehicle: Klucel (hydroxypropylcellulose) (HPC)",108 % of control
same,T/C,"dose: 400.0 mg/kg/injection, schedule: Q01DX005 (ip), vehicle: Klucel (hydroxypropylcellulose) (HPC)",98 % of control
same,T/C,"dose: 400.0 mg/kg/injection, schedule: Q01DX009 (ip), vehicle: Klucel (hydroxypropylcellulose) (HPC)",110 % of control
O=C(COc1ccc(Cl)cc1Cl)NCCO,T/C,[1],98 % of control
same,T/C,[2],97 % of control
same,T/C,"dose: 400.0 mg/kg/injection, schedule: Q04DX003 (ip), vehicle: Klucel (hydroxypropylcellulose) (HPC)",111 % of control
COc1ccc2c(=O)c(C)c(-c3ccccc3)oc2c1CN(C)C,T/C,"dose: 0.19 mg/kg/injection, schedule: Q01DX009 (ip), vehicle: saline",96 % of control
same,T/C,"dose: 0.39 mg/kg/injection, schedule: Q01DX009 (ip), vehicle: saline",112 % of control
same,T/C,"dose: 0.78 mg/kg/injection, schedule: Q01DX009 (ip), vehicle: saline",110 % of control
same,T/C,"dose: 0.78 mg/kg/injection, schedule: Q04DX003 (ip), vehicle: saline",100 % of control
same,T/C,"dose: 1.56 mg/kg/injection, schedule: Q01DX009 (ip), vehicle: saline",112 % of control
same,T/C,"dose: 1.56 mg/kg/injection, schedule: Q04DX003 (ip), vehicle: saline",94 % of control
same,T/C,"dose: 3.12 mg/kg/injection, schedule: Q01DX009 (ip), vehicle: saline",108 % of control
same,T/C,"dose: 3.12 mg/kg/injection, schedule: Q04DX003 (ip), vehicle: saline",93 % of control
same,T/C,"dose: 5.0 mg/kg/injection, schedule: Q01DX001 (ip), vehicle: saline",103 % of control
